According to patent US20250281519A1, “NUCLEOTIDE AND NUCLEOSIDE THERAPEUTIC COMPOSITIONS, COMBINATIONS AND USES RELATED THERETO” (EMORY UNIVERSITY, priority 2021, published 2025):

Experiments:
[1] = molecular target: human DNA polymerase beta (Homo sapiens (Human), UniProt P06746); assay: Human DNA polymerase inhibition assay, pol beta; settings: read-out: Human DNA pol β (IC50 uM)
[2] = molecular target: human DNA polymerase alpha (Homo sapiens (Human), UniProt P09884); assay: Human DNA polymerase inhibition assay, pol alpha; settings: read-out: Human DNA pol α (IC50 uM)
[3] = molecular target: human DNA polymerase gamma (Homo sapiens (Human), UniProt P54098); assay: Human DNA polymerase inhibition assay, pol gamma
HBV = HBV replication in HepG2.2.15 cells (viral DNA by qPCR); format: cell-based; settings: Hepatitis B virus
Protocol: HepG2.2.15 cells (100 μL) in RPMI1640 medium with 10% fetal bovine serum was added to all wells of a 96-well plate at a density of 1×10^4 cells per well and the plate was incubated at 37° C. in an environment of 5% CO2 for 24 hours. Following incubation, six ten-fold serial dilutions of test compound prepared in RPMI1640 medium with 10% fetal bovine serum were added to individual wells of the plate in triplicate. Six wells in the plate received medium alone as a virus only control. The plate was incubated for 6 days at 37° C. in an environment of 5% CO2. The culture medium was changed on day 3 with medium containing the indicated concentration of each compound. One hundred microliters of supernatant was collected from each well for analysis of viral DNA by qPCR and cytotoxicity was evaluated by XTT staining of the cell culture monolayer on the sixth day.
Ten microliters of cell culture supernatant collected on the sixth day was diluted in qPCR dilution buffer (40 μg/mL sheared salmon sperm DNA) and boiled for 15 minutes. Quantitative real time PCR was performed in […] using an Applied Biosystems 7900HT Sequence Detection System and the supporting SDS 2.4 software. […]

[4] = Cytotoxicity in HepG2 cells (XTT); format: cell-based; settings: human, beside HBV
Protocol: The 50% cytotoxic concentration for the test materials are derived by measuring the reduction of the tetrazolium dye XTT in the treated tissue culture plates. XTT is metabolized by the mitochondrial enzyme NADPH oxidase to a soluble formazan product in metabolically active cells. XTT solution was prepared daily as a stock of 1 mg/mL in PBS. Phenazine methosulfate (PMS) stock solution was prepared at 0.15 mg/mL in PBS and stored in the dark at −20° C. XTT/PMS solution was prepared immediately before use by adding 40 µL of PMS per 1 mL of XTT solution. Fifty microliters of XTT/PMS was added to each well of the plate and the plate incubated for 2-4 hours at 37° C. The 2-4 hour incubation has been empirically determined to be within linear response range for XTT dye reduction with the indicated numbers of cells for each assay. Adhesive plate sealers were used in place of the lids, the sealed plate was inverted several times to mix the soluble formazan product and the plate was read at 450 nm (650 nm reference wavelength) with a Molecular Devices SpectraMax Plus 384 spectrophotometer. Data were collected by Softmax 4.6 software and imported into an Excel spreadsheet for analysis.

Adenovirus = assay: Inhibition of DNA virus replication, Adenovirus; format: cell-based; settings: unidentified adenovirus
[5] = Cytotoxicity in Huh-7 cells (DNA virus table); format: cell-based; settings: human, Huh-7 cells; beside Adenovirus
Huh-7 Cells = assay: Cytotoxicity in Huh-7 cells (DNA virus table); format: cell-based; settings: beside HSV-1
HSV-1 = assay: Inhibition of DNA virus replication, HSV-1; format: cell-based; settings: Human alphaherpesvirus 1
HIV = HIV infected PBMC assay; format: cell-based; settings: Human immunodeficiency virus 1, PBMC
Protocol: Fresh human peripheral blood mononuclear cells (PBMCs) were obtained from a commercial source (Biological Specialty) and were determined to be seronegative for HIV and HBV. Depending on the volume of donor blood received, the leukophoresed blood cells were washed several times with PBS. After washing, the leukophoresed blood was diluted 1:1 with Dulbecco's phosphate buffered saline (PBS) and layered over 15 mL of Ficoll-Hypaque density gradient in a 50 ml conical centrifuge tube. These tubes were centrifuged for 30 min at 600 g. Banded PBMCs were gently aspirated from the resulting interface and washed three times with PBS. After the final wash, cell number was determined by Trypan Blue dye exclusion and cells were re-suspended at 1×10^ 6 cells/mL in RPMI 1640 with 15% Fetal Bovine Serum (FBS), 2 mmol/L L-glutamine, 2 μg/mL PHA-P, 100 U/mL penicillin and 100 μg/mL streptomycin and allowed to incubate for 48-72 hours at 37° C. After incubation, PBMCs were centrifuged and resuspended in tissue culture medium. […]
Following addition of test compound to the wells, 50 μL of a predetermined dilution of HIV virus (prepared from 4× of final desired in-well concentration) was added, and mixed well. […] After 7 days in culture, HIV-1 replication was quantified in the tissue culture supernatant by measurement of reverse transcriptase (RT) activity. […]

[6] = Cytotoxicity in PBM cells; format: cell-based; settings: human, PHA-P-stimulated peripheral blood mononuclear cells (PBMCs); beside HIV
HCMV = assay: Inhibition of DNA virus replication, HCMV; format: cell-based; settings: Human betaherpesvirus 5
[7] = Cytotoxicity in MRC-5 cells (DNA virus table); format: cell-based; settings: human, MRC-5 cells; beside HCMV
MRC-5 Cells = assay: Cytotoxicity in MRC-5 cells (DNA virus table); format: cell-based; settings: beside VZV
VZV = assay: Inhibition of DNA virus replication, VZV; format: cell-based; settings: Human alphaherpesvirus 3
CV-B3 = settings: read-out: EC50 against CV-B3; cited from earlier work
EV68 = assay: CPE reduction assay, EV68; format: cell-based; settings: EV68, strain US/KY/14-18953, RD cells
COXV B3 = assay: CPE reduction assay, COXV B3; format: cell-based
COXV A18 = assay: CPE reduction assay, COXV A18; format: cell-based; settings: Huh-7; COXV A18, strain G13, Huh7 cells
COXV A7 = assay: CPE reduction assay, COXV A7; format: cell-based; settings: Huh-7; COXV A7, strain WP Parker, Huh7 cells
COXV B1 = assay: CPE reduction assay, COXV B1; format: cell-based; settings: Huh-7; COXV B1, strain Conn5, Huh7 cells
COXV B2 = assay: CPE reduction assay, COXV B2; format: cell-based; settings: COXV B2, strain Ohio 1, Huh7 cells
COXV B4 = assay: CPE reduction assay, COXV B4; format: cell-based; settings: Huh-7; COXV B4, strain JVB, Huh7 cells
EV70 = assay: CPE reduction assay, EV70; format: cell-based; settings: Huh-7; EV70, strain J670/71, Huh7 cells
EV71 = assay: CPE reduction assay, EV71; format: cell-based; settings: Enterovirus A
HRV = assay: CPE reduction assay, HRV; format: cell-based; settings: HeLa
[8] = Cytotoxicity in RD cells (enterovirus assays); format: cell-based; settings: human
[9] = Cytotoxicity in MRC-5 cells (enterovirus assays); format: cell-based; settings: human, line of EV71 H
[10] = Cytotoxicity in HeLa cells (enterovirus assays); format: cell-based; settings: human, line of HRV 26
HeLa = assay: Cytotoxicity in HeLa cells (enterovirus assays); format: cell-based; settings: line of HRV 1059
in vitro = settings: human
Huh7 = assay: Cytotoxicity in Huh7 cells (enterovirus assays)

Chain of human DNA polymerase alpha (P09884 whole entry): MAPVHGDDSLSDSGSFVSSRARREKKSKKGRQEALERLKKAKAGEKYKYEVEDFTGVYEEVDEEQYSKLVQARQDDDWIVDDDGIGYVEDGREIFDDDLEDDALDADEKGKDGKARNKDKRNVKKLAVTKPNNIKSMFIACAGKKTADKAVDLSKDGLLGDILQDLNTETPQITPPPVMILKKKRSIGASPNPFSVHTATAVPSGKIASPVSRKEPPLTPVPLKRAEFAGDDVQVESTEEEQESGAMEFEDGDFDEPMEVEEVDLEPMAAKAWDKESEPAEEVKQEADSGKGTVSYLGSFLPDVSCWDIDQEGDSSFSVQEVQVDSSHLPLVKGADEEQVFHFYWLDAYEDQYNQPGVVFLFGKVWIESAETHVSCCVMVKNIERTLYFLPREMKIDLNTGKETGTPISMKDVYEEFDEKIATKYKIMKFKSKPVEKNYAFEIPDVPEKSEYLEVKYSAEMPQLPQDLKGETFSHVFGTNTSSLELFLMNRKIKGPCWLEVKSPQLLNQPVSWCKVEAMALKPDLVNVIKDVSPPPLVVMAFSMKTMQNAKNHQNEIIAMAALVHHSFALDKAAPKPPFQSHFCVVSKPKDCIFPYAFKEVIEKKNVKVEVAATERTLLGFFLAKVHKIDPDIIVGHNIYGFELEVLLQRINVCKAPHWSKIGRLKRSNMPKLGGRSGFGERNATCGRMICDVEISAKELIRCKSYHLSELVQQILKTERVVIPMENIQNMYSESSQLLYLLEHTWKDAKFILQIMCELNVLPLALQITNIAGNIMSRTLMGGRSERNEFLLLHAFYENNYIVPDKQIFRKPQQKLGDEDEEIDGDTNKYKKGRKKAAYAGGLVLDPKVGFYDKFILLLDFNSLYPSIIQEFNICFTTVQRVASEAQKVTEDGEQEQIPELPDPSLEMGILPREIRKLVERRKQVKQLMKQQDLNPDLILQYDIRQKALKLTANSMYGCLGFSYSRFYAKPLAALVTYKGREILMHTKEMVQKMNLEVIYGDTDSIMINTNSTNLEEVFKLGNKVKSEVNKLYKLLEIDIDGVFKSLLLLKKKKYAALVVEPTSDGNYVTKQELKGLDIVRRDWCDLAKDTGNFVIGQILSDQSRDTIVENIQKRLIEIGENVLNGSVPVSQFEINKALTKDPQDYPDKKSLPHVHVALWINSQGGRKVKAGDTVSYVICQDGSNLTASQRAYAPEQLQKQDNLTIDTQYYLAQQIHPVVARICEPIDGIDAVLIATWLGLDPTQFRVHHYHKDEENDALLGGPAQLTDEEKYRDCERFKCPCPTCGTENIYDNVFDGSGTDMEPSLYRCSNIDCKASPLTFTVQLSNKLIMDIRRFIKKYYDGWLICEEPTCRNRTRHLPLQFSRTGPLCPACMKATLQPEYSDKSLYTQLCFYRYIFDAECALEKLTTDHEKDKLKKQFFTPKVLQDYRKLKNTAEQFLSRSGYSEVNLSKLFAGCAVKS
Chain of human DNA polymerase gamma (P54098 whole entry): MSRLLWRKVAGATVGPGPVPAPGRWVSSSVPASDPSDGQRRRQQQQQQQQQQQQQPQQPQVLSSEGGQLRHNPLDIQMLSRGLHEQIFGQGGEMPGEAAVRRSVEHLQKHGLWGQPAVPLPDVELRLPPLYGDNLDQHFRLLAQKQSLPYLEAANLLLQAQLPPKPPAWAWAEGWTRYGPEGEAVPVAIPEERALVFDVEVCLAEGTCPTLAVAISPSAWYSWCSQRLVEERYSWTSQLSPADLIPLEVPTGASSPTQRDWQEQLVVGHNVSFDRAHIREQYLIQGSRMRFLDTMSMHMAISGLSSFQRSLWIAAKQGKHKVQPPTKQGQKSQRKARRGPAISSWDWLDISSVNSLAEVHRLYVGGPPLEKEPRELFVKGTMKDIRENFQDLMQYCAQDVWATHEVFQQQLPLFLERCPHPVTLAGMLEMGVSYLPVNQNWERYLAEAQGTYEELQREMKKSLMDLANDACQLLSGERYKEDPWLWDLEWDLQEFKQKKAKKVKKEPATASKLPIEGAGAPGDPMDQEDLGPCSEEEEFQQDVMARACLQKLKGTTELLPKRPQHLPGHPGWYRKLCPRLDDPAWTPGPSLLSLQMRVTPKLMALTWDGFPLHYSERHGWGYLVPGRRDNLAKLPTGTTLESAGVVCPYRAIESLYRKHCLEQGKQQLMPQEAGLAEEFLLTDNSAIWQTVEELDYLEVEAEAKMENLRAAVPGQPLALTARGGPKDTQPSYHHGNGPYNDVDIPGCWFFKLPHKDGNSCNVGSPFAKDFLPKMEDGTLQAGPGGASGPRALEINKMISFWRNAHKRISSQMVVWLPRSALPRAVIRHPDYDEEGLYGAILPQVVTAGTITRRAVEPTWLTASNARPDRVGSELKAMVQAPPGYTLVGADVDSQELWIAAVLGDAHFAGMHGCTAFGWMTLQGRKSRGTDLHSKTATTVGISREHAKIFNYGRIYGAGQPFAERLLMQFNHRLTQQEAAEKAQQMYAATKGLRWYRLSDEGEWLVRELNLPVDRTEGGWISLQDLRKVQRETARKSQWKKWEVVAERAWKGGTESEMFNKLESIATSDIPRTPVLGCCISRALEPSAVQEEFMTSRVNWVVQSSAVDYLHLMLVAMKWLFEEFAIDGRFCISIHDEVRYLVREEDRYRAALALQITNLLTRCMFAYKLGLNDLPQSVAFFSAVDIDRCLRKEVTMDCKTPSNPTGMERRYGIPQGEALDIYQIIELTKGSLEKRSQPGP

Q: Which results are given for `CC1(O)[C@@H](O)[C@@H](COP(=O)(O)OP(=O)(O)OP(=O)(O)O)O[C@H]1n1ccc(=O)[nH]c1=S` (stereo partly drawn)?
A: IC50 [1]: 588 µM; IC50 [2]: > 1000 µM; IC50 [3]: > 1000 µM

Q: For `CC(C)OC(=O)[C@H](C)NP(=O)(OC[C@H]1O[C@@H](n2ccc(=O)[nH]c2=S)C(C)(O)[C@H]1O)Oc1ccccc1` (stereo partly drawn), which IC50 (HBV) is on record?
A: > 100 µM

Q: What about the CC50 [4] of the same compound?
A: > 100 µM

Q: What about the IC50 (Adenovirus) of the same compound?
A: > 100 µM

Q: And the CC50 [5]?
A: > 100 µM

Q: What about the CC50 (Huh-7 Cells) of the same compound?
A: > 100 µM

Q: And the EC50 (HSV-1)?
A: > 100 µM

Q: What about the EC50 (HIV) of the same compound?
A: > 100 µM

Q: What about the CC50 at 7 days [6] of the same compound?
A: > 100 µM

Q: What about the EC50 (HCMV) of the same compound?
A: > 100 µM

Q: What about the CC50 [7] of the same compound?
A: > 100 µM

Q: And the CC50 (MRC-5 Cells)?
A: > 100 µM

Q: And the EC50 (VZV)?
A: > 100 µM

Q: For `CN(C)c1ccc(C(=O)O)cc1` [4-Dimethylamino benzoic acid], which EC50 (CV-B3) is on record?
A: 9 µM

Q: With `CC(C)(C)C(=O)OCOP(=O)(OCOC(=O)C(C)(C)C)OC[C@H]1O[C@@H](n2ccc(=O)[nH]c2=S)[C@](C)(O)[C@@H]1O` [EIDD-2523] as the compound, how does the EC50 (EV68) read?
A: 0.38 µM

Q: What about the EC50 (COXV B3; Huh-7, COXV B3 (printed COXV 83 in the 3rd table), strain HA 201933, Huh7 cells) of the same compound?
A: 9.3 µM

Q: What about the EC50 (COXV B3; Huh-7, COXV B3, strain Nancy, Huh7 cells) of the same compound?
A: 0.38 µM

Q: What about the EC50 (COXV A18) of the same compound?
A: 2.69 µM

Q: And the EC50 (COXV A7)?
A: 3.37 µM

Q: And the EC50 (COXV B1)?
A: > 31 µM

Q: What about the EC50 (COXV B2) of the same compound?
A: 2.65 µM

Q: What about the EC50 (COXV B4) of the same compound?
A: > 16 µM

Q: And the EC50 (EV70)?
A: 0.07 µM

Q: What about the EC50 (EV71; MRC5, EV71, strain H, MRC-5 cells) of the same compound?
A: 1.71 µM

Q: What about the EC50 (EV71; EV71, strain Tainan/4643/98, RD cells) of the same compound?
A: 5.3 µM

Q: What about the EC50 (HRV; strain 26, HeLa cells) of the same compound?
A: 0.43 µM

Q: What about the EC50 (HRV; strain 1059, HeLa cells) of the same compound?
A: 0.72 µM

Q: What about the CC50 ([8]; line of EV68 US/KY/14-18953) of the same compound?
A: 91 µM

Q: What about the CC50 ([8]; line of EV71 Tainan/4643/98) of the same compound?
A: 50 µM

Q: And the CC50 [9]?
A: 32 µM

Q: And the CC50 [10]?
A: > 100 µM

Q: And the CC50 (HeLa)?
A: > 100 µM

Q: And the CC50 (in vitro)?
A: 31 µM

Q: What about the CC50 (Huh7; line of COXV A7 WP Parker) of the same compound?
A: 30 µM

Q: And the CC50 (Huh7; line of COXV A18 G13)?
A: 32 µM

Q: And the CC50 (Huh7; line of COXV B1 Conn5)?
A: 31 µM

Q: What about the CC50 (Huh7; line of COXV B2 Ohio 1) of the same compound?
A: 34 µM

Q: And the CC50 (Huh7; line of COXV B3 HA 201933)?
A: 46 µM

Q: And the CC50 (Huh7; line of COXV B3 Nancy)?
A: 32 µM

Q: What about the CC50 (Huh7; line of COXV B4 JVB) of the same compound?
A: 16 µM
